Reference: ChEMBL document CHEMBL1145438, “Synthesis and matrix metalloproteinase (MMP)-12 inhibitory activity of ageladine A and its analogs” (Bioorg Med Chem Lett, 2007)

Biological target: Macrophage metalloelastase (Homo sapiens, UniProt P39900)
Assay: Inhibition of MMP12

Macrophage metalloelastase, sequence (P39900 whole entry): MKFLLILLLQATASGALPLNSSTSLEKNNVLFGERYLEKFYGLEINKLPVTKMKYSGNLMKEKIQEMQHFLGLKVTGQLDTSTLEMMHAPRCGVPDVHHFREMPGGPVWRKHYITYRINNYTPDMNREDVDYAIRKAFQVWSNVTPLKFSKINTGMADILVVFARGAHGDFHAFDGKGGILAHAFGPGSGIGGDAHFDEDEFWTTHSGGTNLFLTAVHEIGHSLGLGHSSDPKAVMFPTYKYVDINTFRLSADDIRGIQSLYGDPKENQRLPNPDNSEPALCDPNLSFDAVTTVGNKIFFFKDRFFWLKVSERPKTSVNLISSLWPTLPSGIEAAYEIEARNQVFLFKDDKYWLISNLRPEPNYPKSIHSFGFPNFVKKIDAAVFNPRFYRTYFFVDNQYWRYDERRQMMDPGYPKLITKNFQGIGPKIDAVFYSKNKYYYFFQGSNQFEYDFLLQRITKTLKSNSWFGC

Structure (SMILES) | IC50 [µM]
CNc1nc2c(-c3cc(Br)c(Br)[nH]3)nccc2n1C | > 100
Nc1nc2c(-c3ccc[nH]3)nccc2[nH]1 | > 100
Cn1c(-c2nccc3[nH]c(N)nc23)cc(Br)c1Br | > 100
Nc1nc2c(-c3cc(Br)c[nH]3)nccc2[nH]1 | > 100
Nc1nc2c(-c3ccc(Br)[nH]3)nccc2[nH]1 | > 100

Next, values leading:

IC50 [µM] | Structure (SMILES)
> 100 | CN(C)c1nc2c(-c3cc(Br)c(Br)[nH]3)nccc2[nH]1
56.9 | Cn1c(N)nc2c(-c3cc(Br)c(Br)[nH]3)nccc21
43.6 | Brc1cc(-c2nccc3[nH]cnc23)[nH]c1Br
10.4 | CNc1nc2c(-c3cc(Br)c(Br)[nH]3)nccc2[nH]1
3.66 | Nc1nc2c(-c3cc(Br)c(Br)[nH]3)nccc2[nH]1 [AGELADINE A]
